Measured values from patent US12297285B2 (Orna Therapeutics, Inc., priority 2022, dated 2025).

What was measured:
Assay in all cases: IRES screening, Gaussia luciferase from LNP-oRNA (Table 27)
Conditions in all cases: Gaussia luciferase luminescence in supernatant 48 hours after LNP-oRNA transfection, normalized to control (caprine kobuvirus IRES)
[1] = test system: activated primary human T cells
[2] = test system: primary human hepatocytes
[3] = test system: primary human skeletal myotubes

SMILES	[Mod] T Fold Change [1] [Fold Change]	[Mod] PHH Fold Change [2] [Fold Change]	[Mod] Fold Change Myo [3] [Fold Change]
Cc1nccn1CCCN(CCCCCCCC(=O)OCC(CCC(C)C)C(C)C)CCCCCCCC(=O)OCC(CCC(C)C)C(C)C (stereo not drawn) [Lipid 10a-99]	0.2767	1.02	0.1639
CCCCCCCCCN(CCCCn1ccnc1)C(CCCCCCCCC(=O)OCC(CCCC)CCCCCC)CCCCCCCCC(=O)OCC(CCCC)CCCCCC (stereo not drawn) [Lipid 10a-148]	0.02909	0.7368	0.03913
CCCCCCCCCOC(=O)CCCCCCCN(CCCCCCCC(=O)OC(CCCCCCCC)CCCCCCCC)CCC(C)n1ccnc1 (stereo not drawn) [Lipid 10a-131]	0.03336	0.5348	0.03951
CC(C)=CCCC(C)CC(=O)OCCCCCCC(CCCCCCOC(=O)CC(C)CCC=C(C)C)OC(=O)CCCn1ccnc1 (stereo not drawn) [Lipid 10a-118]	0.4562	0.6669	0.1546
CC(C)CCC(C)CCOC(=O)CCCCCCCC(CCCCCCCC(=O)OCCC(C)CCC(C)C)OC(=O)CCCn1ccnc1 (stereo not drawn) [Lipid 10a-101]	0.853	1.37	0.533
CC(C)CCCC(C)CC(=O)OCCCCCCC(CCCCCCOC(=O)CC(C)CCCC(C)C)OC(=O)CCCn1ccnc1 (stereo not drawn) [Lipid 10a-116]	0.03074	0.5299	0.03921
CC(C)=CCCC(C)CC(=O)OCCCCCCN(CCCCCCOC(=O)CC(C)CCC=C(C)C)CCCn1ccnc1C (stereo not drawn) [Lipid 10a-125]	0.6418	0.6492	0.3827
Cc1nccn1CCCC(=O)OC(CCCCCCCC(=O)OCCC(C)CCC(C)C)CCCCCCCC(=O)OCCC(C)CCC(C)C (stereo not drawn) [Lipid 10a-103]	0.03951	0.6471	0.04558
CC(C)=CCC/C(C)=C/C(=O)OCCCCCCN(CCCCCCOC(=O)/C=C(\C)CCC=C(C)C)CCCn1ccnc1 [Lipid 10a-126]	0.06647	0.6456	0.05793
CC(C)=CCC/C(C)=C/C(=O)OCCCCCCN(CCCCCCOC(=O)/C=C(\C)CCC=C(C)C)CCCn1ccnc1C [Lipid 10a-127]	0.6858	0.6745	0.2936
CCCCC(CC)CCC(=O)OCCCCCCN(CCCCCCOC(=O)CCC(CC)CCCC)CCCn1ccnc1 (stereo not drawn) [Lipid 10a-109]	0.6261	0.8533	0.2492
CCCCC(C)CCC(=O)OCCCCCCN(CCCCCCOC(=O)CCC(C)CCCC)CCCn1ccnc1 (stereo not drawn) [Lipid 10a-112]	0.637	0.8075	0.3711
Cc1nccn1CCCC(=O)OC(CCCCCCCCC(=O)OCCC(C)CC(C)(C)C)CCCCCCCCC(=O)OCCC(C)CC(C)(C)C (stereo not drawn) [Lipid 10a-107]	0.9371	1.119	0.2879
